Patent US20260365671A1, “HETEROCYCLIC COMPOUND” (Takeda Pharmaceutical Company Limited, priority 2022, published 2026)
pIC50: −log10 of the molar value.

Key:
NLRP3 inflammasome = biological target: T1, NLRP3 inflammasome (Homo sapiens, UniProt Q96P20); assay: IL-1β TR-FRET assay (THP-1 cells differentiated to macrophages with IFN-γ, LPS primed, ATP activated; HTRF); format: cell-based; details: THP-1 macrophages, 50 ng/mL LPS priming, compound 30 min, 20 mM ATP 2 hours
T1 construct: IL-1beta HTRF
T1 sequence (Q96P20 whole entry): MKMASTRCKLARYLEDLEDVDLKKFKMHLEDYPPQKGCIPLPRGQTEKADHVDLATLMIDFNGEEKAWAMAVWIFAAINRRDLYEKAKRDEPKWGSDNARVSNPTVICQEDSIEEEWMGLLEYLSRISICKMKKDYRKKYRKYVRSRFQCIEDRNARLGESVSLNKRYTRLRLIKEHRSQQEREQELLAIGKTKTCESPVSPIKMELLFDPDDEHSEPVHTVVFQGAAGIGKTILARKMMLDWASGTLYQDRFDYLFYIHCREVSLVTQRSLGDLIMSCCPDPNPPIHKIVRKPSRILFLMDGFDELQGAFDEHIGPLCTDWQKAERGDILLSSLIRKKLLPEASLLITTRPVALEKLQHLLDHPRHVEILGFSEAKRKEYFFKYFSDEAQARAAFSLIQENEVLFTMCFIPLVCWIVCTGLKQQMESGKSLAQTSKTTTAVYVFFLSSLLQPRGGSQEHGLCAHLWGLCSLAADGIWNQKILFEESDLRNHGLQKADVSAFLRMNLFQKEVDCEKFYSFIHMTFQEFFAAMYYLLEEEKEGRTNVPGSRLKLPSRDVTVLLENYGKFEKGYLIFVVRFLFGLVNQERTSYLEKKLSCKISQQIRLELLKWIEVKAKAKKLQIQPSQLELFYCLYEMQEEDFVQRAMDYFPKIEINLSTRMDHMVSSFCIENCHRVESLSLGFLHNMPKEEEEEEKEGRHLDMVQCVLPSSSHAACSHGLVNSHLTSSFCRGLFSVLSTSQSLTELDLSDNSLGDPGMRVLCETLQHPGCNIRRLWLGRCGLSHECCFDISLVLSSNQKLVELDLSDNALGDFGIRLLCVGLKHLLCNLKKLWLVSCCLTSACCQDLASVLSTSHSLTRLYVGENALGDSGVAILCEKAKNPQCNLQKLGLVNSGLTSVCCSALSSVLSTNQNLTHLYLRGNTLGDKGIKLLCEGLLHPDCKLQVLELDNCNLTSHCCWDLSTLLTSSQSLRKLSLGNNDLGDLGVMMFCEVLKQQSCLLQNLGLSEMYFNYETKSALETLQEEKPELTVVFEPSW
How it was run: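 THP-1 cells differentiated with 25 ng/mL IFN-γ for 24 h, primed with 50 ng/mL LPS in serum-free medium for 24 h, then treated with compounds for 30 min before 20 mM ATP activation for 2 h at 37 °C. Secreted IL-1β quantified by HTRF; IC50 from logistic fit of % inhibition.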

NF-κB pathway = assay: TNF-α assay (THP-1 cells differentiated to macrophages with IFN-γ, NF-κB pathway activated with LPS; ELISA); format: cell-based, Human; details: compound 30 min, 50 ng/mL LPS 3 hours
How it was run: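 THP-1 cells differentiated with 25 ng/mL IFN-γ for 24 h, then 30 min with compounds in serum-free medium. NF-κB activated with 50 ng/mL LPS, 3 h at 37 °C. Supernatant TNF-α by ELISA; IC50 from four-parameter logistic fit of % inhibition.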

[1] = Homo sapiens, THP-1, THP-1 macrophages

| pIC50 (NLRP3 inflammasome) | pIC50 (NF-κB pathway; THP-1 macrophages) | pIC50 (NF-κB pathway; [1]) | Structure (SMILES) |
| --- | --- | --- | --- |
| 7.54 | < 4.52 | – | Cc1cc(C)c(-n2cc3sc(N[C@@H]4CCCN(C5CCOC5)C4)nc3n2)c(O)c1 (single isomer, unassigned) [Example 72, 3,5-dimethyl-2-[5-({(3R)-1-[(S)-oxolan-3-yl]piperidin-3-yl}amino)-2H-pyrazolo[3,4-d][1,3]thiazol-2-yl]phenol or 3,5-dimethyl-2-[5-({(3R)-1-[(R)-oxolan-3-yl]piperidin-3-yl}amino)-2H-pyrazolo[3,4-d][1,3]thiazol-2-yl]phenol (tR2)] |
| 6.07 | – | < 4.52 | Cc1cc(C)c(-n2cc3sc(N[C@@H]4C[C@@H](F)CN(C5CCOC5)C4)nc3n2)c(O)c1 (single isomer, unassigned) [Example 73, 2-[5-({(3R,5R)-5-fluoro-1-[(S)-oxolan-3-yl]piperidin-3-yl}amino)-2H-pyrazolo[3,4-d][1,3]thiazol-2-yl]-3,5-dimethylphenol or 2-[5-({(3R,5R)-5-fluoro-1-[(R)-oxolan-3-yl]piperidin-3-yl}amino)-2H-pyrazolo[3,4-d][1,3]thiazol-2-yl]-3,5-dimethylphenol (tR1)] |
| 6.09 | – | < 4.52 | CCC(O)CNc1nc2nn(-c3c(C)cc(C)cc3O)cc2s1 (stereo not drawn) [Example 83, 2-{5-[(2-hydroxybutyl)amino]-2H-pyrazolo[3,4-d][1,3]thiazol-2-yl}-3,5-dimethylphenol] |
| 7.60 | – | < 5.00 | CN1CCC[C@@H](Nc2nc3nn(-c4ccc(Br)cc4O)cc3s2)C1 [Example 1, 5-bromo-2-(5-{[(3R)-1-methylpiperidin-3-yl]amino}-2H-pyrazolo[3,4-d][1,3]thiazol-2-yl)phenol] |
| 6.46 | – | < 4.52 | CC(=O)N1CCC(Nc2nc3nn(-c4c(C)cc(C)cc4O)cc3s2)C1 (stereo not drawn) [Example 85, 1-(3-{[2-(2-hydroxy-4,6-dimethylphenyl)-2H-pyrazolo[3,4-d][1,3]thiazol-5-yl]amino}pyrrolidin-1-yl)ethan-1-one] |
| 6.33 | – | < 5.00 | Cc1cc(C)c(-n2cc3sc(NC4CCN(C(=O)OCc5ccccc5)C4)nc3n2)c(O)c1 (stereo not drawn) [Example 77, benzyl 3-{[2-(2-hydroxy-4,6-dimethylphenyl)-2H-pyrazolo[3,4-d][1,3]thiazol-5-yl]amino}pyrrolidine-1-carboxylate] |
| 6.43 | – | < 4.52 | CNC(=O)N1C[C@H](Nc2nc3nn(-c4c(C)cc(C)cc4O)cc3s2)[C@@H](F)C1 (racemic) [Example 119, racemic mixture of (3R,4R)-3-fluoro-4-{[2-(2-hydroxy-4,6-dimethylphenyl)-2H-pyrazolo[3,4-d][1,3]thiazol-5-yl]amino}-N-methylpyrrolidine-1-carboxamide and (3S,4S)-3-fluoro-4-{[2-(2-hydroxy-4,6-dimethylphenyl)-2H-pyrazolo[3,4-d][1,3]thiazol-5-yl]amino}-N-methylpyrrolidine-1-carboxamide] |
| 6.00 | – | < 4.52 | COC(=O)N1CCCC(Nc2nc3nn(-c4c(C)cc(C)cc4O)cc3s2)C1 (stereo not drawn) [Example 110, methyl 3-{[2-(2-hydroxy-4,6-dimethylphenyl)-2H-pyrazolo[3,4-d][1,3]thiazol-5-yl]amino}piperidine-1-carboxylate] |
| 7.18 | – | < 4.52 | Cc1cc(O)c(-n2cc3sc(NC45CCC(O)(CC4)C5)nc3n2)c(C2CC2(F)F)c1 (stereo not drawn) [Example 149, 4-({2-[2-(2,2-difluorocyclopropyl)-6-hydroxy-4-methylphenyl]-2H-pyrazolo[3,4-d][1,3]thiazol-5-yl}amino)bicyclo[2.2.1]heptan-1-ol] |
| 6.17 | – | < 4.52 | Cc1cc(C)c(-n2cc3sc(NCCN(C)C)nc3n2)c(O)c1 [Example 53, 2-(5-{[2-(dimethylamino)ethyl]amino}-2H-pyrazolo[3,4-d][1,3]thiazol-2-yl)-3,5-dimethylphenol] |
| 7.03 | – | < 4.52 | Cc1cc(C)c(-n2cc3sc(N[C@@H]4C[C@H](F)CN(C)C4)nc3n2)c(O)c1 [Example 179, 2-(5-{[(3R,5S)-5-fluoro-1-methylpiperidin-3-yl]amino}-2H-pyrazolo[3,4-d][1,3]thiazol-2-yl)-3,5-dimethylphenol] |
| 7.40 | – | < 4.52 | COCc1cc(C)cc(O)c1-n1cc2sc(N[C@@H]3C[C@@H](F)CN(C)C3)nc2n1 [Example 177, 2-(5-{[(3R,5R)-5-fluoro-1-methylpiperidin-3-yl]amino}-2H-pyrazolo[3,4-d][1,3]thiazol-2-yl)-3-(methoxymethyl)-5-methylphenol] |
